Measured values: patent publication US7973062B2, “Androgen receptor-ablative agents” (The Ohio State University Research Foundation, priority 2008, dated 2011)
Entries after “also recorded” stand apart in the source; their conditions may differ. Read-outs that look alike come from different tables or passages of the source.

What was measured:
Format in all cases: cell-based
[1] = tested on: androgen receptor (AR) expression; test: Western blot analysis of AR protein expression in LNCaP cells
Description: RT-PCR and Immunoblotting. LNCaP cells were cultured in T25 flasks at an initial density of 1×10^6 cells/flask. After exposure to various compounds at the indicated conditions, cells were subject to total RNA isolation by using an RNeasy mini-kit (QIAGEN, Valencia, Calif.). RNA concentrations were determined by measuring absorption at 260 nm in a spectrophotometer. Aliquots of 6 μg of total RNA from each sample were reverse-transcribed to cDNA using an Omniscript RT Kit (QIAGEN) according to the manufacturer's instructions, using suitable primers.
For immunoblotting, protein extracts were prepared by M-PER Mammalian Protein Extraction Reagent (Pierce, Rockford, Ill.) with freshly added 1% phosphatase and protease inhibitor cocktails (Calbiochem) followed by centrifugation at 13,000×g for 10 min. Supernatant was collected and protein concentration was determined by protein assay reagent (Bio-Rad, CA). Protein extracts were then suspended in 2×SDS sample buffer, and subject to 10% SDS-polyacrylamide gels. After electrophoresis, proteins were transferred to nitrocellulose membranes using a semidry transfer cell. The transblotted membrane was washed twice with Tris-buffered saline containing 0.1% Tween 20 (TBST). After blocking with TBST containing 5% nonfat milk for 1 h, the membrane was incubated with mouse monoclonal anti-AR (Santa Cruz) or anti-β-actin (MP Biomedicals) antibodies (diluted 1:1000) in 1% TBST nonfat milk at 4° C. overnight. After incubation with the primary antibody, the membrane was washed three times with TBST for a total of 30 min, followed by incubation with horseradish peroxidase conjugated goat anti-mouse IgG (diluted 1:2500) for 1 h at room temperature. After three thorough washes with TBST for a total of 30 min, the immunoblots were visualized by enhanced chemiluminescence.

[2] = molecular target: T1, PPARγ (Homo sapiens, UniProt P37231); test: PPRE-luciferase reporter assay (PPRE-x3-TK-Luc) in PC-3 cells; conditions: PC-3 cells transfected with PPRE-x3-TK-Luc
T1 construct: In PC-3 cells transfected with a reporter construct (PPRE-x3-TK-Luc); endogenous in cells; host or cells: PC-3
T1 sequence (P37231 1-505): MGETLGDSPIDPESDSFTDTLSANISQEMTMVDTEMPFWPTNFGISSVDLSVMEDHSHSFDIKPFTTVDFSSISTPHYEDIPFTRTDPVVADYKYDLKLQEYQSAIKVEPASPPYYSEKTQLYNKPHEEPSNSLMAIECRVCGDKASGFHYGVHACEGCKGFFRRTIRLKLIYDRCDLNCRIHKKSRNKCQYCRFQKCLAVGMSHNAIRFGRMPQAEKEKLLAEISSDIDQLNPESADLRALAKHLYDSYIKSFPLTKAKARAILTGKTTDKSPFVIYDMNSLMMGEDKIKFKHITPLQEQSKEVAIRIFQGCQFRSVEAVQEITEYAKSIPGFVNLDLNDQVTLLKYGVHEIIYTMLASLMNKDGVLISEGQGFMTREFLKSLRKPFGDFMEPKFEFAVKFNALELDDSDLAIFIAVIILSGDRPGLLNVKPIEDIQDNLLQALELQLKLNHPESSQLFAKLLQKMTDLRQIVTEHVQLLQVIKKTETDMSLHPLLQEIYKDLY
Source text: Transfection and Luciferase assay. The 3.6-kilobase AR promoter-linked reporter plasmid p-3600ARCAT was kindly provided by Dr. Chawnshang Chang (University of Rochester Medical Center, Rochester, N.Y.). The AR promoter gene (−3600 to +550) encompassing the transcription start site was isolated by using PCR to generate hAR-luc with suitable primers. The fragment was subcloned into the pGL3 luciferase reporter vector (Promega, Madison, Wis.) at KpnI and BglII in the multiple cloning site. The PPRE-x3-TK-Luc reporter vector contains three copies of the PPAR-response element (PPRE) upstream of the thymidine kinase promoter-luciferase fusion gene and was kindly provided by Dr. Bruce Spiegelman (Harvard University, Cambridge, Mass.). The pCMVSp1 plasmid was purchased from Origene Technologies, Inc. (Rockville, Md.). LNCaP or PC3 cells were transfected with 5 μg of individual plasmids in an Amaxa Nucleofector using a cell line-specific nucleofector kit according to the manufacturer's protocol (Amaxa Biosystems, Cologne, Germany), and then seeded in 6-well plates at 5×10^5 cells per well for 48 h. […] For each transfection, herpes simplex virus thymidine kinase promoter-driven Renilla reniformis luciferase was used as an internal control for normalization.
Fifty-μl aliquots of the lysates were added to 96-well plates, and luciferase activity was monitored after adding 100 μl of luciferase substrate (Promega) each well by using a MicroLumatPlus LB96V luminometer (Berthold Technologies, Oak Ridge, Tenn.) with the WinGlow software package. All transfection experiments were carried out in six replicate.

[3] = tested on: LNCaP androgen-responsive prostate cancer cells; test: MTT cell viability assay, LNCaP cells; conditions: for IC50: Homo sapiens, 5% FBS, read-out: IC50 for suppressing cell viability
Description: Cell Counting and Cell Viability Assay. LNCaP or PC-3 cells were placed in six-well plates (2.5×10^5 cells/well) in 10% FBS-supplemented RPMI 1640 for 24 h, and treated with various concentrations of compound 12 for additional 24, 48 and 72 h. Cells were then trypsinized and counted by using a Coulter counter (Model Z1 D/T, Beckman Coulter, Fullerton, Calif.). Cell viability was assessed by using the 3-(4,5-dimethylthiazol-2-yl)-2,5-diphenyl-2H-tetrazolium bromide (MTT) assay in six replicates in 96-well plates. LNCaP or PC-3 cells were seeded at 6000 cells per well in 10% FBS-supplemented RPMI 1640 for 24 h, followed by treatments with various compounds in 5% FBS-supplemented RPMI 1640 at the indicated concentrations. Controls received DMSO at a concentration equal to that in drug-treated cells. After the end of incubation, MTT (0.5 mg/ml) in 10% FBS-supplemented RPMI 1640 was added to each well, and cells were incubated at 37° C. for 2 hours. Medium was removed and the reduced MTT dye was solubilized in DMSO (200 μl/well). Absorbance was determined at 570 nm by a 96-well plate reader.

[4] = tested on: androgen receptor (AR); test: Immunocytochemical analysis of AR in LNCaP cells; conditions: 5 μM, 48 h
Description: Immunocytochemical Analysis. Cells were seeded onto coverslips in six-well plates (2.5×10^5 cells/well) for 24 h followed by exposure to 5 μM compound 12 for an additional 48 h. After extensive washing with PBS, cells were fixed and permeabilized with PBS containing 0.1% Triton X-100 for 1 h, and then incubated with anti-AR (1:100 dilution) in PBS containing 0.1% Triton X-100, 0.2% bovine serum albumin, 0.5 mM PMSF, and 1 mM DTT at room temperature for 12 h followed by Alexa Fluor 488-conjugated goat anti-mouse IgG (1:100; Molecular Probes) for 2 h. Nuclear counterstaining was performed by mounting with 4,6-diamidino-2-phenylindole (DAPI)-containing medium. Images of immunocytochemically labeled samples were observed using a Nikon microscope (Eclipse TE300).

Compound: CC1(CN2C(=O)S/C(=C\c3ccc(O)c(C(F)(F)F)c3)C2=O)CCCCC1 [Compound 12, 5-(4-Hydroxy-3-trifluoromethyl-benzylidene)-3-(1-methyl-cyclohexylmethyl)-thiazolidine-2,4-dione]
- AR expression level after compound washed out of the medium ([1]; 5 μM, washout then drug-free medium (FIG. 6C)): rapidly restored
- suppression of AR protein expression (in words) ([1]; 10% FBS, 72 h, Western blot): completely inhibited AR expression in LNCaP cells at low μM concentrations; also recorded: an-order-of-magnitude higher potency than ciglitazone
- IC50 ([1]; 72-h exposure, Western blot (FIG. 4C), read-out: IC50 for suppressing AR expression): ~2000 nM
- PPARγ activation (in words) [2]: lacked appreciable activity
- inhibition of LNCaP cell viability (in words) ([3]; 48 h): optimal agents
- IC50 ([3]; 48 h): 8000 nM
- IC50 ([3]; 72 h): 3000 nM
- AR levels in the nucleus [4]: substantial decrease in AR levels in the nucleus
